Laboratory results: patent publication EP4603105A1, “PHARMACEUTICAL COMPOSITION CONTAINING CYCLIC COMPOUND HAVING SELECTIVE KRAS INHIBITORY EFFECT AGAINST HRAS AND NRAS” (CHUGAI SEIYAKU KABUSHIKI KAISHA, priority 2022, dated 2024)
pIC50: −log10 of the molar value. Where a SMILES comes first, the peptide text is derived from it. Bridges are numbered along the chain shown (N, C = ends). [ ]: non-standard residue; d: D form. The star is where a group is joined. hPhe(3-Cl-4-CF3) = N[C@@H](CCc1ccc(C(F)(F)F)c(Cl)c1)C(=O)O; NPrPhe(4-CF3) = CCCN[C@@H](Cc1ccc(C(F)(F)F)cc1)C(=O)O; Morpholine(3S-CO) = O=C(O)[C@@H]1COCCN1; NMeGly(cPent) = CN[C@H](C(=O)O)C1CCCC1; Hyp = O=C(O)[C@@H]1C[C@@H](O)CN1; NMeD = CN[C@@H](CC(=O)O)C(=O)O; NMeL = CN[C@@H](CC(C)C)C(=O)O; NMeAbu = CC[C@H](NC)C(=O)O; Morpholide = C1CN(*)CCO1; NMeA = CN[C@@H](C)C(=O)O; Ac5c = NC1(C(=O)O)CCCC1; Aze = O=C(O)[C@@H]1CCN1; Ac4c = NC1(C(=O)O)CCC1; NEtG = CCNCC(=O)O; Sar = CNCC(=O)O

Tests used:
HRAS wild-type protein = HRAS wild-type protein (Homo sapiens, UniProt P01112); test: Binding to HRAS by surface plasmon resonance (SPR), KD and KD ratio to KRAS
Sequence of HRAS wild-type protein (P01112 whole entry): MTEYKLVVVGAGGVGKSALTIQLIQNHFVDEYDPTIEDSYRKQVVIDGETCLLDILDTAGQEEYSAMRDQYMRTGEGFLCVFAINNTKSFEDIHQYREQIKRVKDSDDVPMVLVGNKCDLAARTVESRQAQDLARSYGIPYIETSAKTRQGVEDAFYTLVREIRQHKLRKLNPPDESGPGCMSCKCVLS
Outline: (§1)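 Each cycle, GDP-bound biotin-Avi RAS was captured (~100–300 RU), compound concentrations were injected low to high for 75 s each at 100 µL/min, then the chip was regenerated. Buffer: HBS pH 7.4, 10 mM MgCl2, 10 µM GDP, 1 mM DTT, 4% DMSO; 30°C. KD from a 1:1 binding model.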

[1] = biological target: GDP-bound NRAS wild-type protein (Homo sapiens, UniProt P01111); test: Binding to NRAS by surface plasmon resonance (SPR), KD and KD ratio to KRAS
Sequence of GDP-bound NRAS wild-type protein (P01111 whole entry): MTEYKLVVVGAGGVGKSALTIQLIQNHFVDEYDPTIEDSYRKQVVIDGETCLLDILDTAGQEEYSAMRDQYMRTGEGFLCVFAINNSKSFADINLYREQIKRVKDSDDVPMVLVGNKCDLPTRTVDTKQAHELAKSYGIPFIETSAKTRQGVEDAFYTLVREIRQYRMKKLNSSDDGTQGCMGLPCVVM
Outline: as §1

[2] = test system: human lung cancer strain NCI-H441; type: cell-based
Outline: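 Signal came from […] measured per well once the reagent was added. Beforehand, cells were cultured at 37°C and 5% carbon dioxide on a compound series serially diluted in dimethyl sulfoxide.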

[3] = ratio of the KD value with respect to HRAS wild-type protein to the KD value with respect to KRAS
[4] = ratio of the KD value with respect to GDP-bound NRAS wild-type protein to the KD value with respect to KRAS
[5] = ratio of KD for HRAS wild-type protein to KD for KRAS
[6] = ratio of KD for GDP-bound NRAS wild-type protein to KD for KRAS

| SMILES | HRAS /KRAS (HRAS wild-type protein; [3]) | NRAS /KRAS [1, 4] | pIC50 [2] | HRAS /KRAS (HRAS wild-type protein; [5]) | NRAS /KRAS [1, 6] | HRAS /KRAS (HRAS wild-type protein; ratio of KD value for HRAS wild-type protein to KD value for KRAS (SPR)) | NRAS /KRAS ([1]; ratio of KD value for GDP-bound NRAS wild-type protein to KD value for KRAS (SPR)) |
| --- | --- | --- | --- | --- | --- | --- | --- |
| CCO[C@@H]1C[C@H]2C(=O)NC3(CCC3)C(=O)N(C)[C@@H](C3CCCC3)C(=O)N(C)[C@H](C(=O)N3CCOCC3)CC(=O)N(C)[C@@H](COC)C(=O)N[C@@H]([C@@H](C)CC)C(=O)N(C)CC(=O)N(C)[C@H]3CCCCN(C3=O)[C@@H](Cc3ccc(C(F)(F)F)cc3)C(=O)N(C)CC(=O)N[C@@H](CCc3cc(F)c(C(F)(F)F)c(F)c3)C(=O)N2C1 [PP0719] | B (a compound having 3 or more and less than 10 is denoted as B) | C (A compound having a KD ratio of 0.1 or more and less than 3 is denoted as C) | 8.07 | – | – | – | – |
| CCCN1C(=O)CN(C)C(=O)[C@@H]2CCN2C(=O)[C@H]([C@@H](C)CC)NC(=O)[C@H](CC(C)C)N(C)C(=O)C[C@@H](C(=O)N2CCOCC2)N(C)C(=O)[C@H](C2CCCC2)N(C)C(=O)C2(CCC2)NC(=O)[C@@H]2C[C@@H](OCC)CN2C(=O)[C@H](CCc2ccc(C(F)(F)F)c(Cl)c2)NC(=O)CN(C)C(=O)[C@@H]1Cc1ccc(C(F)(F)F)cc1 [PP0405] ([NMeL]I[Aze][Sar][NPrPhe(4-CF3)][Sar][hPhe(3-Cl-4-CF3)][Hyp](Et)[Ac4c][NMeGly(cPent)][NMeD]-Morpholide; lactam N-11) | C (A compound having a KD ratio of 0.1 or more and less than 3 is denoted as C) | B (a compound having 3 or more and less than 10 is denoted as B) | 7.84 | – | – | – | – |
| CCCN1C(=O)CN(C)C(=O)CN(CC)C(=O)[C@H]([C@@H](C)CC)NC(=O)[C@H](CC(C)C)N(C)C(=O)C[C@@H](C(=O)N2CCOCC2)N(C)C(=O)[C@H](C2CCCC2)N(C)C(=O)C2(CCCC2)NC(=O)[C@@H]2COCCN2C(=O)[C@H](CCc2ccc(C(F)(F)F)c(Cl)c2)NC(=O)CN(C)C(=O)[C@@H]1Cc1ccc(C(F)(F)F)cc1 [PP0299] ([NMeL]I[NEtG][Sar][NPrPhe(4-CF3)][Sar][hPhe(3-Cl-4-CF3)][Morpholine(3S-CO)][Ac5c][NMeGly(cPent)][NMeD]-Morpholide; lactam N-11) | – | – | 7.69 | B (a compound having 3 or more and less than 10 is denoted as B) | B (a compound having 3 or more and less than 10 is denoted as B) | – | – |
| CCO[C@@H]1C[C@H]2C(=O)NC3(CC(C)(C)C3)C(=O)N(C)[C@@H](C(CC)CC)C(=O)N(C)[C@H](C(=O)N(C)C)CC(=O)N(C)[C@@H](C(C)C)C(=O)N[C@@H]([C@@H](C)CC)C(=O)N(C)CC(=O)N(C)[C@H]3C/C=C\CCN(C3=O)[C@@H](Cc3ccc(C(F)(F)F)cc3)C(=O)N(C)CC(=O)N[C@@H](CCc3cc(F)c(C(F)(F)F)c(F)c3)C(=O)N2C1 [PP2135] | A (a compound having 10 or more and less than 20 is denoted as A) | AA (a compound having 20 or more is denoted as AA) | 7.80 | – | – | – | – |
| CCCO[C@@H]1C[C@H]2C(=O)NC3(CC(C)(C)C3)C(=O)N(C)[C@@H](C3CCCC3)C(=O)N(C)[C@H](C(=O)N3CCCC3)CC(=O)N(C)[C@H]3CCCCc4ccc(cc4)C[C@@H](C(=O)N(C)CC(=O)N[C@@H](CCc4ccc(C(F)(F)F)c(OC)c4)C(=O)N2C1)N1CC/C=C\C[C@@H](C1=O)N(C)C(=O)CN(C)C(=O)[C@H]([C@@H](C)CC)NC3=O [PP3094] | – | – | 8.66 | B (a compound having 3 or more and less than 10 is denoted as B) | A (a compound having 10 or more and less than 20 is denoted as A) | – | – |
| CCO[C@@H]1C[C@H]2C(=O)NC3(CC(C)(C)C3)C(=O)N(C)[C@@H](C(CC)CC)C(=O)N(C)[C@H](C(=O)N(C)C)CC(=O)N(C)[C@@H](CC(C)C)C(=O)N[C@@H]([C@@H](C)CC)C(=O)N(C)CC(=O)N(C)[C@H]3C/C=C\CCN(C3=O)[C@@H](Cc3ccc(C)cc3)C(=O)N(C)CC(=O)N[C@@H](CCc3ccc(Cl)c(Cl)c3)C(=O)N2C1 [PP2185] | A (a compound having 10 or more and less than 20 is denoted as A) | AA (a compound having 20 or more is denoted as AA) | 7.44 | – | – | – | – |
| CCCN1C(=O)CN(C)C(=O)CN(C)C(=O)[C@H]([C@@H](C)CC)NC(=O)[C@H](CC(C)C)N(C)C(=O)C[C@@H](C(=O)N2CCOCC2)N(C)C(=O)[C@H](C2CCCC2)N(C)C(=O)C2(CCC2)NC(=O)[C@H](CC)N(C)C(=O)[C@H](CCc2ccc(C(F)(F)F)c(Cl)c2)NC(=O)CN(C)C(=O)[C@@H]1Cc1ccc(C(F)(F)F)cc1 [PP1918] ([NMeL]I[Sar][Sar][NPrPhe(4-CF3)][Sar][hPhe(3-Cl-4-CF3)][NMeAbu][Ac4c][NMeGly(cPent)][NMeD]-Morpholide; lactam N-11) | C (A compound having a KD ratio of 0.1 or more and less than 3 is denoted as C) | B (a compound having 3 or more and less than 10 is denoted as B) | 7.48 | – | – | – | – |
| CCO[C@@H]1C[C@H]2C(=O)NC3(CC(C)(C)C3)C(=O)N(C)[C@@H](C(CC)CC)C(=O)N(C)[C@H](C(=O)N(C)C)CC(=O)N(C)[C@@H](C(C)C)C(=O)N[C@@H]([C@@H](C)CC)C(=O)N(C)CC(=O)N(C)[C@H]3C/C=C\CCN(C3=O)[C@@H](Cc3ccc(C)cc3)C(=O)N(C)CC(=O)N[C@@H](CCc3ccc(C(F)(F)F)c(OC)c3)C(=O)N2C1 [PP2173] | A (a compound having 10 or more and less than 20 is denoted as A) | A (a compound having 10 or more and less than 20 is denoted as A) | 7.70 | – | – | – | – |
| CCO[C@@H]1C[C@H]2C(=O)NC3(CCC3)C(=O)N(C)[C@@H](C(CC)CC)C(=O)N(C)[C@H](C(=O)N(C)C)CC(=O)N(C)[C@@H](CC3CCCC3)C(=O)N[C@@H]([C@@H](C)CC)C(=O)N(C)CC(=O)N(C)[C@H]3C/C=C\CCN(C3=O)[C@@H](Cc3ccc(F)cc3C)C(=O)N(C)CC(=O)N[C@@H](CCc3cc(F)c(C(F)(F)F)c(F)c3)C(=O)N2C1 [PP1516] | – | – | 7.34 | – | – | B (a compound having 3 or more and less than 10 is denoted as B) | A (a compound having 10 or more and less than 20 is denoted as A) |
| CCCOC[C@H]1C(=O)N[C@@H]([C@@H](C)CC)C(=O)N2CCC[C@H]2C(=O)N(C)[C@H]2C/C=C\CCN(C2=O)[C@@H](Cc2ccc(C)cc2)C(=O)N(C)CC(=O)N[C@@H](CCc2ccc(C(F)(F)F)c(OC)c2)C(=O)N2C[C@H](OCC)C[C@H]2C(=O)N(C)C2(CCC2)C(=O)N(C)[C@@H](C2CCCC2)C(=O)N(C)[C@H](C(=O)N(C)C)CC(=O)N1C [PP2334] | B (a compound having 3 or more and less than 10 is denoted as B) | A (a compound having 10 or more and less than 20 is denoted as A) | 8.24 | – | – | – | – |
| CCO[C@@H]1C[C@H]2C(=O)NC3(CCC3)C(=O)N(C)[C@@H](C(CC)CC)C(=O)N(C)[C@H](C(=O)N3CCOCC3)CC(=O)N(C)[C@@H](CC(C)C)C(=O)N[C@@H]([C@@H](C)CC)C(=O)N(C)CC(=O)N(C)[C@H]3CCCCN(C3=O)[C@@H](Cc3ccc(C(F)(F)F)cc3)C(=O)N(C)CC(=O)N[C@@H](CCc3cc(F)c(C(F)(F)F)c(F)c3)C(=O)N2C1 [PP0811] | – | – | 8.01 | B (a compound having 3 or more and less than 10 is denoted as B) | B (a compound having 3 or more and less than 10 is denoted as B) | – | – |
| CCO[C@@H]1C[C@H]2C(=O)NC3(CCC3)C(=O)N(C)[C@@H](C3CCCC3)C(=O)N(C)[C@H](C(=O)N(C)C)CC(=O)N(C)[C@@H](CC)C(=O)N[C@@H]([C@@H](C)CC)C(=O)NCC(=O)N(C)[C@H]3C/C=C\CCN(C3=O)[C@@H](Cc3ccc(C(F)(F)F)cc3)C(=O)N(C)CC(=O)N[C@@H](CCc3cc(F)c(C(F)(F)F)c(F)c3)C(=O)N2C1 [PP0983] | – | – | 7.71 | A (a compound having 10 or more and less than 20 is denoted as A) | A (a compound having 10 or more and less than 20 is denoted as A) | – | – |
| CCCN1C(=O)[C@@H]2CCN2C(=O)[C@H](C)N(C)C(=O)[C@H]([C@@H](C)CC)NC(=O)[C@H](CC(C)C)N(C)C(=O)C[C@@H](C(=O)N2CCOCC2)NC(=O)[C@H](C2CCCC2)N(C)C(=O)C2(CCC2)NC(=O)[C@@H]2CCCN2C(=O)[C@H](CCc2ccc(C(F)(F)F)c(Cl)c2)NC(=O)CN(C)C(=O)[C@@H]1Cc1ccc(C(F)(F)F)cc1 [PP0344] ([NMeL]I[NMeA][Aze][NPrPhe(4-CF3)][Sar][hPhe(3-Cl-4-CF3)]P[Ac4c][NMeGly(cPent)]D-Morpholide; lactam N-11) | – | – | 7.08 | B (a compound having 3 or more and less than 10 is denoted as B) | C (A compound having a KD ratio of 0.1 or more and less than 3 is denoted as C) | – | – |
| CCO[C@@H]1C[C@H]2C(=O)NC3(CCC3)C(=O)N(C)[C@@H](C3CCCC3)C(=O)N(C)[C@H](C(=O)N3CCOCC3)CC(=O)N(C)[C@@H](CC(C)C)C(=O)N[C@@H]([C@@H](C)CC)C(=O)N(C)CC(=O)N(C)[C@H]3CCCCCN(C3=O)[C@@H](Cc3ccc(C(F)(F)F)cc3)C(=O)N(C)CC(=O)N[C@@H](CCc3cc(F)c(C(F)(F)F)c(F)c3)C(=O)N2C1 [PP0467] | B (a compound having 3 or more and less than 10 is denoted as B) | B (a compound having 3 or more and less than 10 is denoted as B) | 7.47 | – | – | – | – |
